In US20130296539A1, “MAGNETIC RESONANCE IMAGING AGENTS FOR CALCIFICATION” (priority 2012, published 2013):

Tests used:
[1] = In-vitro UTE and GRE MRI of HA crystals bound by contrast agent; conditions: short incubation with HA crystals in PBS, UTE sequence TR=200 msec, TE=100 μsec
Procedure: (§1) MRI can be performed on a 1.5 T GE Signa clinical scanner equipped with a custom low-pass birdcage coil (10 cm length, 6 cm diameter). The custom UTE sequence is based on previous work in the field {Irarrazabal, 1995; Song, 1998}.
1 mM of [Gd^3+-DOTA]-Thr-Pam-Na is added to 5 mg of HA crystals in 50 μL PBS (pH 7.4) and is vortexed for 1 h at RT in a 1.5 mL Eppendorf tube. 5 mg HA in 1 mM of [Gd^3+-DOTA]-Thr and 50 μL PBS is used as a control. MRI, pre- and post-washing with 4×500 μL PBS, are acquired using an UTE sequence (TR=200 msec, TE=100 μsec) or conventional GRE sequence (TR=200 msec, TE=1.8 msec). Other acquisition parameters includes FOV=6 cm, slice thickness=5 mm, matrix size=256×256, NEX=4.

[2] = Contrast agent concentration and TR dependence of UTE MRI signals; conditions: 5 mg HA, 1 h at RT, washed with PBS, UTE MRI TE=100 μsec
Procedure: as §1
5 mg HA is placed in 1.5 mL plastic Eppendorf tubes, then 0, 0.1, 1, 10, or 100 μM [Gd^3+-DOTA]-Thr-Pam-Na in 50 μL PBS is added to each. After vortexing 1 h at RT, the crystals are washed with 4×500 μL PBS and UTE MRI acquisition is performed using a fixed TE=100 μsec and varying TR of 17, 50, 200, 500 msec. Other acquisition parameters includes FOV=11 cm, slice thickness=10 mm, matrix size=256×256, NEX=2.

[3] = Quantitation of calcium salt specificity by UTE MRI; conditions: 10 μM in PBS, 1 h at RT, UTE MRI before and after washing crystals
Procedure: as §1
5 mg of HA or the phosphate, oxalate, carbonate, or pyrophosphate salts of calcium is placed in 1.5 ml Eppendorf tube and is incubated with 10 μM [Gd^3+-DOTA]-Thr-Pam-Na in 50 μL PBS for 1 h at RT with continuous vortexing. UTE MRI acquisition is performed pre- and post-washing with 4×500 μL PBS using TR=200 msec and TE=100 μsec. Other acquisition parameters includes FOV=9 cm, slice thickness=10 mm, matrix size=256×256, NEX=2.

[4] = In-vivo UTE MRI of subcutaneously implanted HA crystals; conditions: mice, intravenous injection, minimum of 4 h of clearance; compared with microCT
Procedure: as §1
50 mg of HA crystals is taken in 300 μL PBS, is implanted subcutaneously at right flank of anesthetized mice. UTE MRI is taken after implantation of HA crystal using TR/TE=200 msec/100 μsec, FOV=6 cm, slice thickness=5 mm, matrix size=256×256. 4 μmol of [Gd^3+-DOTA]-Thr-Pam-Na in 300 μL saline is injected intravenously. After 4 h of clearance, an UTE MRI is taken with same parameters.

## [Gd^3+-DOTA]-Thr-Pam-Na
[1]
  Detection of HA crystals by UTE MRI: able to detect HA crystals with high sensitivity
[2]
  Lowest incubation concentration resulting in detectable signal enhancement: 1 µM
[3]
  Specificity for HA over other calcium salts: more than three fold higher specificity for HA over other calcium salts
[4]
  In-vivo detection of HA crystals by UTE MRI: UTE MRI provides a sensitive detection of HA crystals in-vivo
